Reference: PMC3914206

What was measured:
panel of 442 kinases [1] = target: T1, panel of 442 kinases (Homo sapiens, UniProt O95835); type: binding; settings: Compound Concentration 10 µM
T1 construct: purchased KINOMEscan
T1 sequence (O95835 1-1130): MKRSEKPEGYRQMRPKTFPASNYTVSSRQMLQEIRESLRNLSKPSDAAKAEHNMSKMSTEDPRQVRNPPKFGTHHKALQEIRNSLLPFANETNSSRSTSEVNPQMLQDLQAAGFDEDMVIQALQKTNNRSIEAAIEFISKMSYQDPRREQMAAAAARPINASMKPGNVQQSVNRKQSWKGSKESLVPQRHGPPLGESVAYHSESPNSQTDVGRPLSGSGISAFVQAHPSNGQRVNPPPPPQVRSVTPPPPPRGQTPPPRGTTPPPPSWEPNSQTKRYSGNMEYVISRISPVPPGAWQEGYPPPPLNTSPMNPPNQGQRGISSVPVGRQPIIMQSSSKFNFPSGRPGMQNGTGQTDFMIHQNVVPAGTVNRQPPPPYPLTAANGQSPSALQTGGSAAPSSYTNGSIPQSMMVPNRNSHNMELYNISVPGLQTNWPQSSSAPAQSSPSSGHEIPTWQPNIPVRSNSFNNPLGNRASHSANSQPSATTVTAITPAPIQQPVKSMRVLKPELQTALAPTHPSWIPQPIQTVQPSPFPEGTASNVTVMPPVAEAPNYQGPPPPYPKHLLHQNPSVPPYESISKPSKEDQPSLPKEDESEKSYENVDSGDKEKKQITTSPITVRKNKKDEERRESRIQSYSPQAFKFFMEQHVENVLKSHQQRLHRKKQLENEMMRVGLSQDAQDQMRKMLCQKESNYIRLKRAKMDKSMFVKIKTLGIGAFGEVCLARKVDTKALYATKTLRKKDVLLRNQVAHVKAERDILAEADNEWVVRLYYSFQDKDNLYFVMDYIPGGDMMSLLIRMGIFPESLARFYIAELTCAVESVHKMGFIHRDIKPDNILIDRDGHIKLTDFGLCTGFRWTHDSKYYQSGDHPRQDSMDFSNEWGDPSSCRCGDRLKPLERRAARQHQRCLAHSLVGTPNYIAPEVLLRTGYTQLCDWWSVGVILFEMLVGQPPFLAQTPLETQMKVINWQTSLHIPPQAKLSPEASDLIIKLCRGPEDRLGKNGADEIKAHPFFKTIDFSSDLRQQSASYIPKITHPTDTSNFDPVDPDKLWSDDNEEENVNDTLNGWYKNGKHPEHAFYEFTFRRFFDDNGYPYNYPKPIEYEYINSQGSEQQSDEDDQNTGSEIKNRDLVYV
Excerpt: (§1) We assessed the selectivity of members of this scaffold using the KINOMEscan methodology across a near comprehensive panel of 442 kinases [[18,27]].

panel of 442 kinases [2] = type: binding; settings: for KINOMEscan: EGFR(L747-E749del, A750P) / KINOMEscan: EGFR(L747-S752del, P753S) / KINOMEscan: EGFR(L747-T751del,Sins) / KINOMEscan: FLT3(ITD): Compound Concentration 10 µM; for Number of score not higher than 10: of 442 total assayed kinases, % Ctrl ≤ 10; for Number of score not higher than 10 / S10: compound concentration 10 µM; for S10: selectivity score = (number of kinases with %Ctrl ≤ 10)/total number of kinases tested (442)
Excerpt: as §1

SMILES | KINOMEscan: LATS1 (panel of 442 kinases [1]) | KINOMEscan: EGFR(L747-E749del, A750P) (panel of 442 kinases [2]) | KINOMEscan: EGFR(L747-S752del, P753S) (panel of 442 kinases [2]) | KINOMEscan: EGFR(L747-T751del,Sins) (panel of 442 kinases [2]) | KINOMEscan: FLT3(ITD) (panel of 442 kinases [2]) | Number of score not higher than 10 (panel of 442 kinases [2]) | S10 (panel of 442 kinases [2]) | KINOMEscan selectivity score (S10) (panel of 442 kinases [2]; screened at 10 μM, 442 kinases)
COc1cc(C(=O)N2CCC(N3CCN(C)CC3)CC2)ccc1Nc1ncc2c(n1)N(C)c1ccccc1C(=O)N2C [15 (LRRK2-IN-1)] | 100 | 78 | 84 | 100 | 100 | 16 | 0.036 | 
COc1cc(C(=O)N2CCC(N3CCN(C)CC3)CC2)ccc1Nc1ncc2c(n1)N(C1CCCC1)c1ccccc1C(=O)N2C [Compound 25, 11-cyclopentyl-2-((2-methoxy-4-(4-(4-methylpiperazin-1-yl)piperidine-1-carbonyl)phenyl)amino)-5-methyl-5H-benzo[e]pyrimido[5,4-b][1,4]diazepin-6(11H)-one] | 100 | 85 | 74 | 76 | 100 | 8 | 0.018 | 0.018
CCOc1cc(C(=O)N2CCC(N3CCN(C)CC3)CC2)ccc1Nc1ncc2c(n1)N(C1CCCC1)c1ccccc1C(=O)N2C [Compound 26] | 100 | 100 | 100 | 100 | 100 | 3 | 0.007 | 
